The source of these data is patent US20210322508A1, “PEPTIDES AND COMPOSITIONS FOR TARGETED TREATMENT AND IMAGING” (SIGNABLOK, INC., priority 2018, published 2021).

Structures are written as SMILES. Residues, ends and D or L forms follow the SMILES beside them.

Assay [1] deals with AsPC-1, BxPC-3 and Capan-1 xenograft tumors. As to the kind of experiment: Human PC xenograft mouse models: tumor growth, survival, tolerability. In kind it is in vivo. To be noted: free peptides i.p. once daily 5 days per week at indicated doses. The method, then:
(§1) Mice were monitored daily and tumor measurements were taken along the length and width using Vernier calipers twice weekly until sacrifice. Tumor volumes were calculated using a modified ellipsoidal formula: (Length×Width^2)/2.
Results are expressed as the mean±SEM.
as §1
Mice were monitored daily and tumor measurements were taken along the length and width using Vernier calipers twice weekly until sacrifice.

In the next assay the test system is J774A.1 macrophages. As to the kind of experiment: In vitro macrophage endocytosis of fluorescent peptides with or without HDL. Conditions: for receptors mediating in vitro macrophage endocytosis: pre-incubated with HDL, fucoidan, BLT-1, cytochalasin D; for in vitro macrophage endocytosis, effect of pre-incubation with HDL: rho B-labeled peptides, 1 mg/ml HDL. It counts as cell-based, mouse. Here is the method: The BALB/c murine macrophage cell line J774A.1 (ATCC TIB-67) were obtained from the American Type Culture Collection (ATCC, Manassas, Va.). The macrophage cells were cultured at 37° C. with 5% CO2 in Dulbecco's modified Eagle's medium (DMEM) (Cellgro, Mediatech Inc, Manassas, Va.) with 2 mM glutamine, 100 U/ml penicillin, 0.1 mg/ml streptomycin, and 10% fetal bovine serum (FBS) (Cellgro, Mediatech Inc, Manassas, Va.) and grown to approximately 90% of confluence in 6-well tissue culture plates (Corning, Tewksbury, Mass.). Cells were incubated for varied time periods from 4 to 24 h at 37° C. with fluorescently labeled peptides (pre-incubated with 1 mg/ml HDL) at a concentration of 4 μM rhodamine B (rho-B). After incubation, cells were washed twice with PBS and lysed using Promega passive lysis buffer (Promega, Madison, Wis.). The rho B fluorescence was measured in the lysates with a 540 nm excitation and a 590 nm emission filters using the Gemini EM fluorescence microplate reader (Molecular Devices, Sunnyvale, Calif.). The protein concentration in the lysates was determined using the Bradford reagent (Bio-Rad, Richmond, Calif.) and the SpectraMax 190 microplate reader (Molecular Devices, Sunnyvale, Calif.).
In one embodiment, after reaching target confluency, cells were incubated for 1 h in medium with or without fucoidan (400 μg/mL), BLT-1 (10 μM) or cytochalasin D (40 μM), Cells were subsequently incubated for 4 h and 22 h at 37° C. in medium containing 2 μM of rho B-labeled peptides G-KV21 and G-HV21 (as calculated for rho B) that were pre-incubated with 1 mg/ml HDL. After incubation, cells were washed twice with PBS and lysed using Promega passive lysis buffer. The rho B fluorescence and protein concentration were measured in the lysates as described above.

The subject of assay [2] is human non-small cell lung cancer H292 xenograft. As to the kind of experiment: H292 xenograft mouse model. In kind it is in vivo, mice. Conditions: vs vehicle. An excerpt:
PTX, paclitaxel. ****, P<0.0001 as compared with vehicle-treated animals.
PTX, paclitaxel. ****, p<0.0001 as compared with vehicle-treated animals.
Abbreviations: PTX, paclitaxel; PBS, phosphate-buffer saline.

For assay [3], the system named is LPS-stimulated J774A.1 macrophages (TNF-alpha, IL-6, IL-1beta). As to the kind of experiment: In vitro cytokine release by LPS-stimulated macrophages. It counts as cell-based, mouse. To be noted: 10 ng/ml after pre-incubation with HDL; LPS 1 μg/ml, 24 h. Here is the method:
(§2) The BALB/c murine macrophage cell line J774A.1 (ATCC TIB-67) were obtained from the American Type Culture Collection (ATCC, Manassas, Va.). Macrophages were cultured in 48-well plates (Corning, Cambridge, Mass.) for 24 h at 37° C. in the presence of LPS (1 μg/ml, Escherichia coli 055:B5, Sigma) in combination with 10 ng/ml peptides either pre-incubated or not with HDL. Cell-free supernatants were harvested and stored at −20° C. for later cytokine quantification. TNF-alpha, IL-6, and IL-1beta were assayed using commercial ELISA kits (Pierce Biotechnology, Thermo Scientific, Rockford, Ill.) according to the recommendations of the manufacturer. Results were represented as the mean±S.D. of three independent experiments. Statistical significances in in vitro macrophage uptake assay were determined by two-tailed Student's t test.
as §2, with “Macrophages were cultured in 48-well plates (Corning, Cambridge, Mass.) for 24 h at 37° C. in the presence of LPS (1 μg/ml, Escherichia coli 055:B5, Sigma) in combination with 10 ng/ml peptides either pre-incubated or not with HDL.” left out

Assay [4] concerns C57BL/6 mice with LPS-induced septic shock. As to the kind of experiment: LPS-induced septic shock: survival. It counts as in vivo, mouse. Conditions: free peptides, at this dose; 30 mg/kg LPS i.p. Here is the method: One hour later, mice received i.p. injection of 30 mg/kg LPS from E. coli 055:B5 (Sigma). In some experiments, all formulations were i.p. administered 1 and 3 h after LPS injection. The viability of mice was examined hourly. Body weights were measured daily. In all of the animal experiments, blood samples were collected via a sub-mandibular (cheek) bleed at 90 min after administration of LPS. Statistical analysis of survival curves was performed by the Kaplan-Meier test. Comparisons were made using two-tailed Student's t test. The production of cytokines in serum was measured by a standard sandwich cytokine ELISA procedure using TNF-alpha, IL-1beta and IL-6 ELISA kits (Pierce Biotechnology, Thermo Scientific, Rockford, Ill.) according to the instructions of the manufacturer. Statistical significances in cytokine analysis ELISA data were determined by two-tailed Student's t test.
Naïve, female C57BL/6 mice at 8 to 10 weeks of age (18 to 21 g) from the Jackson Laboratory were randomly grouped (10 mice per group) and i.p. injected with vehicle or the indicated doses of dexamethasone (DEX), GF9, G-TE21, G-HV21 and G-KV21. One hour later, mice received i.p. injection of 30 mg/kg LPS from E. coli 055:B5 (Sigma). […] Body weights were measured daily. […] Statistical significances in cytokine analysis ELISA data were determined by two-tailed Student's t test.

Take `CC(C)C[C@H](NC(=O)[C@H](Cc1ccccc1)NC(=O)CN)C(=O)N[C@@H](CO)C(=O)N[C@@H](CCCCN)C(=O)N[C@@H](CO)C(=O)N[C@@H](CC(C)C)C(=O)N[C@H](C(=O)N[C@@H](Cc1ccccc1)C(=O)NCC(=O)N[C@@H](CCC(=O)O)C(=O)N[C@@H](CCC(=O)O)C(=O)N[C@@H](CC[S+](C)[O-])C(=O)N[C@@H](CCCNC(=N)N)C(=O)N[C@@H](CC(=O)O)C(=O)N[C@@H](CCCNC(=N)N)C(=O)N[C@@H](C)C(=O)N[C@@H](CCCNC(=N)N)C(=O)N[C@@H](C)C(=O)N[C@@H](Cc1c[nH]cn1)C(=O)N[C@H](C(=O)O)C(C)C)C(C)C` (stereo partly drawn) [G-HV21] (HELM PEPTIDE1{G.F.L.S.K.S.L.V.F.G.E.E.[CS(=O)CC[C@H](N[*:1])C(=O)[*:2]].R.D.R.A.R.A.H.V}$$$$V2.0): the tumor growth result in assay [1] is “inhibit tumor growth in three human PC xenograft mouse models”. Also, in the assay on J774A.1 macrophages, the “receptors mediating in vitro macrophage endocytosis” value was “mediated with scavenger receptors (SR) A (SR-A) and BI (SR-B1) with SR-A being the predominant mediator”; the “in vitro macrophage endocytosis, effect of pre-incubation with HDL” value is given as “enhances in vitro macrophage endocytosis”. In assay [2], the tumor growth entry is on record as “significantly inhibit the tumor growth”. In assay [3], the “production of cytokines by LPS-stimulated macrophages” value is recorded as “inhibit production of cytokines by LPS-stimulated macrophages”. Also, the “protection from LPS-induced septic shock / survival” value in assay [4] was “protect mice from LPS-induced septic shock and prolongs survival of septic mice”.
In the case of `CC(C)C[C@H](NC(=O)[C@H](Cc1ccccc1)NC(=O)CN)C(=O)N[C@@H](CO)C(=O)N[C@@H](CCCCN)C(=O)N[C@@H](CO)C(=O)N[C@@H](CC(C)C)C(=O)N[C@H](C(=O)N[C@@H](Cc1ccccc1)C(=O)N[C@@H](Cc1c[nH]c2ccccc12)C(=O)N[C@@H](CCC(N)=O)C(=O)N[C@@H](CCC(=O)O)C(=O)N[C@@H](CCC(=O)O)C(=O)N[C@@H](CC[S+](C)[O-])C(=O)N[C@@H](CCC(=O)O)C(=O)N[C@@H](CC(C)C)C(=O)N[C@@H](Cc1ccc(O)cc1)C(=O)N[C@@H](CCCNC(=N)N)C(=O)N[C@@H](CCC(N)=O)C(=O)N[C@@H](CCCCN)C(=O)N[C@H](C(=O)O)C(C)C)C(C)C` (stereo partly drawn) [G-KV21] (HELM PEPTIDE1{G.F.L.S.K.S.L.V.F.W.Q.E.E.[CS(=O)CC[C@H](N[*:1])C(=O)[*:2]].E.L.Y.R.Q.K.V}$$$$V2.0), the tumor growth entry in assay [1] is on record as “inhibit tumor growth in three human PC xenograft mouse models”; in assay [2], “significantly inhibit the tumor growth”. In addition, the “receptors mediating in vitro macrophage endocytosis” value with J774A.1 macrophages was “mediated with scavenger receptors (SR) A (SR-A) and BI (SR-B1) with SR-A being the predominant mediator”. Further, the “in vitro macrophage endocytosis, effect of pre-incubation with HDL” value in the assay on J774A.1 macrophages is listed as “enhances in vitro macrophage endocytosis”. Also, the “production of cytokines by LPS-stimulated macrophages” value in assay [3] is recorded as “inhibit production of cytokines by LPS-stimulated macrophages”. Also, the “protection from LPS-induced septic shock / survival” value in assay [4] was “protect mice from LPS-induced septic shock and prolongs survival of septic mice”.
